From paper PMC7720599, “Rhenium N-heterocyclic carbene complexes block growth of aggressive cancers by inhibiting FGFR- and SRC-mediated signalling” (Journal of Experimental & Clinical Cancer Research : CR, 2020)

Tested on: zebrafish embryos
Experiment: Zebrafish embryo teratogenicity
Assay type: in vivo
Conditions: treatment from 2hpf, images at 24hpf
Procedure: Embryos were observed daily at 24 h intervals and toxicity scores (hatching and mortality) were recorded until 120hpf. For heart rate assessments, embryos were anesthetized with tricaine (ethyl 3-aminobenzoate methanesulfonate) at 48hpf and counted under the stereomicroscope for 1min. To assess JVG045 teratogenicity compared to BGJ398, embryos were treated with the compounds starting from 2hpf and results observed at 24hpf. Compounds were prepared in DMSO and diluted to the final concentration in E2 embryo medium. DMSO was used as negative control.

CCN1CCN(c2ccc(Nc3cc(N(C)C(=O)Nc4c(Cl)c(OC)cc(OC)c4Cl)ncn3)cc2)CC1 [BGJ398, 3-(2,6-Dichloro-3,5-dimethoxy-phenyl)-1-{6-[4-(4-ethyl-piperazin-1-yl)-phenylamino]-pyrimidin-4-yl}-1-methyl-urea]
concentration at which developmental defects start: 500 to 1000 nM
